In ChEMBL document CHEMBL2034954, “Synthesis and antimycobacterial activity of novel 1,3-dimethylisocyanurate derivatives” (Eur J Med Chem, 2012):
Values after ≈ are worked out from the molar mass of the structure shown.

Key:
Type in all cases: functional
[1] = tested on: Mycobacterium tuberculosis; test: Antitubercular activity against Mycobacterium tuberculosis H37Rv after […] by radiometric growth assay
[2] = tested on: Mycobacterium tuberculosis; test: Bacteriostatic activity against Mycobacterium tuberculosis H37Rv at 0.5 ug/mL assessed as growth index after 3 days by radiometric growth assay (reference value: 210 growth index)
[3] = tested on: Mycobacterium tuberculosis; test: Bacteriostatic activity against Mycobacterium tuberculosis H37Rv at 1 ug/mL assessed as growth index after 3 days by radiometric growth assay (reference value: 210 growth index)
[4] = tested on: Mycobacterium tuberculosis; test: Bacteriostatic activity against Mycobacterium tuberculosis H37Rv at 1 ug/mL assessed as growth index after 10 days by radiometric growth assay (reference value: 210 growth index)
[5] = tested on: Mycobacterium tuberculosis; test: Bacteriostatic activity against Mycobacterium tuberculosis H37Rv at 1 ug/mL assessed as growth index after 7 days by radiometric growth assay (reference value: 210 growth index)
[6] = tested on: Mycobacterium tuberculosis; test: Bacteriostatic activity against Mycobacterium tuberculosis H37Rv at 1 ug/mL assessed as growth index after 4 days by radiometric growth assay (reference value: 210 growth index)
[7] = tested on: Mycobacterium tuberculosis; test: Bacteriostatic activity against Mycobacterium tuberculosis H37Rv at 1 ug/mL assessed as growth index after 5 days by radiometric growth assay (reference value: 210 growth index)
[8] = tested on: Mycobacterium tuberculosis; test: Bacteriostatic activity against Mycobacterium tuberculosis H37Rv at 0.5 ug/mL assessed as growth index after 5 days by radiometric growth assay (reference value: 210 growth index)
[9] = tested on: Mycobacterium tuberculosis; test: Bacteriostatic activity against Mycobacterium tuberculosis H37Rv at 0.5 ug/mL assessed as growth index after 4 days by radiometric growth assay (reference value: 210 growth index)
[10] = tested on: Mycobacterium tuberculosis; test: Bacteriostatic activity against Mycobacterium tuberculosis H37Rv at 0.1 ug/mL assessed as growth index after 3 days by radiometric growth assay (reference value: 210 growth index)
[11] = tested on: Mycobacterium tuberculosis; test: Bacteriostatic activity against Mycobacterium tuberculosis H37Rv at 0.1 ug/mL assessed as growth index after 5 days by radiometric growth assay (reference value: 210 growth index)
[12] = tested on: Mycobacterium tuberculosis; test: Bacteriostatic activity against Mycobacterium tuberculosis H37Rv at 0.1 ug/mL assessed as growth index after 4 days by radiometric growth assay (reference value: 210 growth index)
[13] = tested on: Mycobacterium tuberculosis; test: Bacteriostatic activity against Mycobacterium tuberculosis H37Rv at 0.1 ug/mL assessed as growth index after 7 days by radiometric growth assay (reference value: 210 growth index)
[14] = tested on: Mycobacterium tuberculosis; test: Bacteriostatic activity against Mycobacterium tuberculosis H37Rv at 0.5 ug/mL assessed as growth index after 7 days by radiometric growth assay (reference value: 210 growth index)

Structure (SMILES)	MIC [1]	Growth_index [2]	Growth_index [3]	Growth_index [4]	Growth_index [5]	Growth_index [6]	Growth_index [7]	Growth_index [8]	Growth_index [9]	Growth_index [10]	Growth_index [11]	Growth_index [12]	Growth_index [13]	Growth_index [14]
Cn1c(=O)n(C)c(=O)n(CS(=O)(=O)CC(N)=O)c1=O	1 µg/mL (≈ 3.42 µM)	–	–	–	–	–	–	–	–	–	–	–	–	–
Cn1c(=O)n(C)c(=O)n(CCCS(=O)(=O)CC(=O)NN)c1=O	1 µg/mL (≈ 2.98 µM)	15	5	55	55	18	55	>90	30	–	–	–	–	–
Cn1c(=O)n(C)c(=O)n(CCCS(=O)(=O)CC(N)=O)c1=O	1 µg/mL (≈ 3.12 µM)	–	20	39	39	29	39	–	–	–	–	–	–	–
Cn1c(=O)n(C)c(=O)n(CCC[S+]([O-])CC(N)=O)c1=O (stereo not given)	1 µg/mL (≈ 3.29 µM)	–	7	–	–	41	>90	–	–	–	–	–	–	–
Cn1c(=O)n(C)c(=O)n(CC(O)CS(=O)(=O)CC(=O)NN)c1=O (stereo not given)	0.1 µg/mL (≈ 0.285 µM)	–	1	35	35	25	30	–	–	–	–	–	–	–
Cn1c(=O)n(C)c(=O)n(CCCCCCCCCC[S+]([O-])CC(=O)NN)c1=O (stereo not given)	0.5 µg/mL (≈ 1.2 µM)	–	0	22	22	20	22	–	–	–	–	–	–	–
C=CCn1c(=O)n(CC=C)c(=O)n(CC(O)CS(=O)(=O)CC(=O)NN)c1=O (stereo not given)	0.1 µg/mL (≈ 0.248 µM)	–	–	–	–	–	–	–	–	–	–	–	–	–
Cn1c(=O)n(C)c(=O)n(CCCCS(=O)(=O)CC(=O)NN)c1=O	1 µg/mL (≈ 2.86 µM)	–	18	>90	73	34	73	–	–	–	–	–	–	–
Cn1c(=O)n(C)c(=O)n(CCCCCCS(=O)(=O)CC(N)=O)c1=O	1 µg/mL (≈ 2.76 µM)	–	5	–	>90	23	53	–	–	–	–	–	–	–
Cn1c(=O)n(C)c(=O)n(CCCCCCS(=O)(=O)CC(=O)NN)c1=O	0.1 µg/mL (≈ 0.265 µM)	–	–	–	–	–	–	–	–	15	31	27	>90	–
Cn1c(=O)n(C)c(=O)n(CCCCCS(=O)(=O)CC(N)=O)c1=O	1 µg/mL (≈ 2.87 µM)	–	15	23	23	20	23	–	–	–	–	–	–	–
Cn1c(=O)n(C)c(=O)n(CC[S+]([O-])CC(=O)NN)c1=O (stereo not given)	0.5 µg/mL (≈ 1.64 µM)	30	10	50	50	22	40	–	>90	–	–	–	–	–
Cn1c(=O)n(C)c(=O)n(CCCCCS(=O)(=O)CC(=O)NN)c1=O	0.5 µg/mL (≈ 1.38 µM)	12	14	50	50	50	50	50	33	–	–	–	–	>90
Cn1c(=O)n(C)c(=O)n(CCCCS(=O)(=O)CC(N)=O)c1=O	1 µg/mL (≈ 2.99 µM)	–	20	54	54	35	54	–	–	–	–	–	–	–
Cn1c(=O)n(C)c(=O)n(CCCCCC[S+]([O-])CC(=O)NN)c1=O (stereo not given)	0.5 µg/mL (≈ 1.38 µM)	–	10	–	>90	15	15	–	–	–	–	–	–	–
Cn1c(=O)n(C)c(=O)n(CCC[S+]([O-])CC(=O)NN)c1=O (stereo not given)	1 µg/mL (≈ 3.13 µM)	–	5	55	5	5	5	–	–	–	–	–	–	–
